Measurements published in patent US8802664B2 (Bioproject, priority 2010, dated 2014).

Biological target: T1, human H4 receptor (Homo sapiens, UniProt Q9H3N8)
T1 construct: expressed in transfected cells
Assay: [3H]Histamine binding on membranes of CHO cells stably expressing human H4 receptor
Method in brief: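 Membranes from sub-confluent CHO-hH4 cells, 20 μg protein per well, were incubated in 50 mM Tris/HCl, 0.5 mM EDTA, pH 7.4. Nonspecific binding was defined with 10 μM JNJ 7777120. Bound radioactivity was collected on PEI-soaked GF/B filters and counted by liquid scintillation.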

T1 sequence (Q9H3N8 whole entry): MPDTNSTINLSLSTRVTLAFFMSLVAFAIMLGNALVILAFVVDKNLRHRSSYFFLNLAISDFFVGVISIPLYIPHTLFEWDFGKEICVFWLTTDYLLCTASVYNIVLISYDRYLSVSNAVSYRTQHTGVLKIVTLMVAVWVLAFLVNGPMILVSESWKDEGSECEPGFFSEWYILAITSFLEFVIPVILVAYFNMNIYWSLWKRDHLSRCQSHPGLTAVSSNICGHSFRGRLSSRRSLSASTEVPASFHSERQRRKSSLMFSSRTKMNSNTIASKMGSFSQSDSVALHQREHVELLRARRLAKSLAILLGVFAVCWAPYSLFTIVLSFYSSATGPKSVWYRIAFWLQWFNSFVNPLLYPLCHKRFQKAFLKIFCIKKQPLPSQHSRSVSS

Row | SMILES | Ki or IC50 activity class [µM]
1 | CN1CCC(OC(c2cccc(OCCCCn3cncn3)c2)c2nc3ccccc3s2)CC1 (stereo not drawn) [Example 316, 2-{(1-methylpiperidin-4-yloxy)[3-(4-[1,2,4]triazol-1-yl-butoxy)phenyl]methyl}benzothiazole] | < 0.3
2 | CN1CCC(OC(c2cccc(CCCCCCN)c2)c2nc3ccccc3[nH]2)CC1 (stereo not drawn) [Example 344, 6-{3-[(1H-benzimidazol-2-yl)(1-methylpiperidin-4-yloxy)methyl]phenyl}hexylamine] | < 0.3
3 | CC1=C(O)C(=NCCCCC#Cc2ccc(F)c(C(OC3CCN(C)CC3)c3nc4ccccc4[nH]3)c2)CC1 (stereo not drawn) [Example 563, 5-(6-{3-[(1H-benzimidazol-2-yl)(1-methylpiperidin-4-yloxy)methyl]-4-fluorophenyl}hex-5-ynylimino)-2-methylcyclopent-1-enol] | < 0.3
4 | CN1CCC(OC(c2cccc(C#CCCCN)c2)c2nc3ccccc3s2)CC1 (stereo not drawn) [Example 287, 5-{3-[benzothiazol-2-yl(1-methylpiperidin-4-yloxy)methyl]phenyl}pent-4-ynylamine] | < 0.03
5 | CCSc1cccc(C(OC2CCN(C)CC2)c2nc3ccccc3[nH]2)c1 (stereo not drawn) [Example 153, 2-[(3-ethylsulfanylphenyl)(1-methylpiperidin-4-yloxy)methyl]-1H-benzimidazole] | < 0.03
6 | CN1CCC(NC(c2cccc(Br)c2)c2nc3ccccc3[nH]2)CC1 (stereo not drawn) [Example 64, [(1H-benzimidazol-2-yl)(3-bromophenyl)methyl](1-methylpiperidin-4-yl)amine] | < 1
7 | CN1CCC(OC(c2cccc(C#CCN)c2)c2nc3ccccc3s2)CC1 (stereo not drawn) [Example 296, 3-{3-[benzothiazol-2-yl(1-methylpiperidin-4-yloxy)methyl]phenyl}prop-2-ynylamine] | < 0.3
8 | CN1CCC(OC(c2cccc(C=CCCCO)c2)c2nc3ccccc3[nH]2)CC1 (stereo not drawn) [Example 389, 5-{3-[(1H-benzimidazol-2-yl)(1-methylpiperidin-4-yloxy)methyl]phenyl}pent-4-en-1-ol] | < 0.3
9 | CN1CCC(OC(c2ccc(O)cc2)c2nc3ccccc3[nH]2)CC1 (stereo not drawn) [Example 597] | < 1
10 | CN1CCC(OC(c2cccc(-c3ccc(F)c(F)c3F)c2)c2nc3ccccc3s2)CC1 (stereo not drawn) [Example 141, 2-[(1-methylpiperidin-4-yloxy)(2′,3′,4′-trifluorobiphenyl-3-yl)methyl]benzothiazole] | < 0.3
11 | CN1CCC(OC(c2cccc(C#CC3CCNCC3)c2)c2nc3ccccc3[nH]2)CC1 (stereo not drawn) [Example 376, 2-[(1-methylpiperidin-4-yloxy)(3-piperidin-4-ylethynyl-phenyl)methyl]-1H-benzimidazole] | < 1
12 | CN1CCC(OC(c2cccc(OCCCN3CCN(C(=O)OC(C)(C)C)CC3)c2)c2nc3ccccc3s2)CC1 (stereo not drawn) [Example 351, 4-(3-{3-[benzothiazol-2-yl(1-methylpiperidin-4-yloxy)methyl]phenoxy}propyl)piperazine-1-carboxylic acid tert-butyl ester] | < 1
13 | CN1CCC(OC(c2cccc(OCCCCCN)c2)c2nc3ccccc3[nH]2)CC1 (stereo not drawn) [Example 400, 5-{3-[(1H-benzimidazol-2-yl)(1-methylpiperidin-4-yloxy)methyl]phenoxy}pentylamine] | < 0.03
14 | c1csc(C(OC2CCNCC2)c2nc3ccccc3[nH]2)c1 (stereo not drawn) [Example 544] | < 1
15 | CN1CCC(OC(c2ccc3c(c2)OCO3)c2nc3ccccc3[nH]2)CC1 (stereo not drawn) [Example 297, 2-[benzo[1,3]dioxol-5-yl(1-methylpiperidin-4-yloxy)methyl]-1H-benzimidazole] | < 0.3
16 | CN1CCC(OC(c2cccc(N3CCC(N)C3)c2)c2nc3ccccc3s2)CC1 (stereo not drawn) [Example 423, 1-{3-[benzothiazol-2-yl(1-methylpiperidin-4-yloxy)methyl]phenyl}pyrrolidin-3-ylamine] | < 0.3
17 | CN1CCC(OC(c2cccc(C=CCCCO)c2)c2nc3ccccc3s2)CC1 (stereo not drawn) [Example 384, 5-{3-[benzothiazol-2-yl(1-methylpiperidin-4-yloxy)methyl]phenyl}pent-4-en-1-ol] | < 0.3
18 | CN1CCC(OC(c2cccc(C#CCCCNC(=N)N)c2)c2nc3ccccc3s2)CC1 (stereo not drawn) [Example 340, N-(5-{3-[benzothiazol-2-yl(1-methylpiperidin-4-yloxy)methyl]phenyl}pent-4-ynyl)guanidine] | < 0.03
19 | CN1CCC(OC(c2cccc(C#CCCO)c2)c2nc3ccccc3s2)CC1 (stereo not drawn) [Example 236, 4-{3-[benzothiazol-2-yl(1-methylpiperidin-4-yloxy)methyl]phenyl}but-3-yn-1-ol] | < 0.3
20 | CN1CCC(NC(c2cc3ccccc3o2)c2nc3ccccc3s2)CC1 (stereo not drawn) [Example 37, [(benzofuran-2-yl)(benzothiazol-2-yl)methyl](1-methylpiperidin-4-yl)amine] | < 1
21 | CCCCc1cccc(C(OC2CCN(C)CC2)c2nc3ccccc3s2)c1 (stereo not drawn) [Example 80, 2-[(3-butylphenyl)(1-methylpiperidin-4-yloxy)methyl]benzothiazole] | < 0.3

Row | SMILES | Ki or IC50 activity class [µM]
22 | CN1CCC(OC(c2cccc(CCCCNC(=N)NC(=O)OC(C)(C)C)c2)c2nc3ccccc3[nH]2)CC1 (stereo not drawn) [Example 309, N-tert-butoxycarbonyl-N′-(4-{3-[(1H-benzimidazol-2-yl)(1-methylpiperidin-4-yloxy)methyl]phenyl}butyl)guanidine] | < 0.3
23 | CN1CCC(OC(c2cccc(C#CCCN)c2)c2nc3ccccc3s2)CC1 (stereo not drawn) [Example 282, 4-{3-[benzothiazol-2-yl(1-methylpiperidin-4-yloxy)methyl]phenyl}but-3-ynylamine] | < 1
24 | CN1CCC(OC(c2ccc(Cl)cc2)c2nc3ccccc3s2)CC1 (stereo not drawn) [Example 4, 2-[(4-chlorophenyl)(1-methylpiperidin-4-yloxy)methyl]benzothiazole] | < 1
25 | CCn1c(C(OC2CCN(C)CC2)c2cccc(C#CCCCCN)c2)nc2ccccc21 (stereo not drawn) [Example 503] | < 0.3
26 | CN1CCC(OC(c2cccc(OCCO)c2)c2nc3ccccc3s2)CC1 (stereo not drawn) [Example 244, 2-{3-[benzothiazol-2-yl(1-methylpiperidin-4-yloxy)methyl]phenoxy}ethanol] | < 0.3
27 | Cc1cc(C(OC2CCN(C)CC2)c2nc3ccccc3s2)ccc1F (stereo not drawn) [Example 34, 2-[(4-fluoro-3-methylphenyl)(1-methylpiperidin-4-yloxy)methyl]benzothiazole] | < 0.3
28 | CCCCOc1cccc(C(NC2CCN(C)CC2)c2nc3ccccc3[nH]2)c1 (stereo not drawn) [Example 69, [(1H-benzimidazol-2-yl)(3-butoxyphenyl)methyl](1-methylpiperidin-4-yl)amine] | < 0.03
29 | CN1CCC(OC(c2cccc(C#N)c2)c2nc3ccccc3[nH]2)CC1 (stereo not drawn) [Example 172, 3-[(1H-benzimidazol-2-yl)(1-methylpiperidin-4-yloxy)methyl]benzonitrile] | < 0.3
30 | CN1CCC(OC(c2cccc(N3CCC(O)C3)c2)c2nc3ccccc3[nH]2)CC1 (stereo not drawn) [Example 452] | < 0.3
31 | CN1CCC(OC(c2cccc(OCCNCC(=O)OC(C)(C)C)c2)c2nc3ccccc3s2)CC1 (stereo not drawn) [Example 370, (2-{3-[benzothiazol-2-yl(1-methylpiperidin-4-yloxy)methyl]phenoxy}ethylamino)acetic acid tert-butyl ester] | < 1
32 | CSCc1cccc(C(OC2CCN(C)CC2)c2nc3ccccc3[nH]2)c1 (stereo not drawn) [Example 528, 2-[(1-methylpiperidin-4-yloxy)(3-methylsulfanylmethylphenyl)methyl]-1H-benzimidazole] | < 0.3
33 | CSc1cccc(-c2cccc(C(OC3CCN(C)CC3)c3nc4ccccc4[nH]3)c2)c1 (stereo not drawn) [Example 116, 2-[(1-methylpiperidin-4-yloxy)(3′-methylsulfanylbiphenyl-3-yl)methyl]-1H-benzimidazole] | < 0.3
34 | CCSc1cc(C(OC2CCN(C)CC2)c2nc3ccccc3[nH]2)ccc1C (stereo not drawn) [Example 274, 2-[(3-ethylsulfanyl-4-methylphenyl)(1-methylpiperidin-4-yloxy)methyl]-1H-benzimidazole] | < 0.3
35 | CN1CCC(OC(c2cccc(OCCF)c2)c2nc3ccccc3s2)CC1 (stereo not drawn) [Example 163, 2-[[3-(2-fluoroethoxy)phenyl](1-methylpiperidin-4-yloxy)methyl]benzothiazole] | < 0.03
36 | CN1CCC(OC(c2cccc(C=CS(=O)(=O)c3ccccc3)c2)c2nc3ccccc3s2)CC1 (stereo not drawn) [Example 209, 2-[[3-(2-benzenesulfonylvinyl)phenyl](1-methylpiperidin-4-yloxy)methyl]benzothiazole] | < 0.3
37 | CN1CCC(OC(c2cccc(CCCNC(=N)N)c2)c2nc3ccccc3[nH]2)CC1 (stereo not drawn) [Example 320, N-(3-{3-[(1H-benzimidazol-2-yl)(1-methylpiperidin-4-yloxy)methyl]phenyl}propyl)guanidine] | < 0.03
38 | CN1CCC(OC(c2cccc(SCc3ccccc3)c2)c2nc3ccccc3[nH]2)CC1 (stereo not drawn) [Example 150, 2-[(3-benzylsulfanylphenyl)(1-methylpiperidin-4-yloxy)methyl]-1H-benzimidazole] | < 0.3
39 | CN1CCC(OC(c2cccc(I)c2)c2nc3ccccc3s2)CC1 (stereo not drawn) [Example 41, 2-[(3-iodophenyl)(1-methylpiperidin-4-yloxy)methyl]benzothiazole] | < 0.03
40 | CN1CCC(NC(c2cccc(OCc3cc(F)ccc3F)c2)c2nc3ccccc3[nH]2)CC1 (stereo not drawn) [Example 149, {(1H-benzimidazol-2-yl)[3-(2,5-difluoro-benzyloxy)phenyl]methyl}(1-methylpiperidin-4-yl)amine] | < 0.03
41 | CN1CCC(OC(c2cccc(SCCN)c2)c2nc3ccccc3[nH]2)CC1 (stereo not drawn) [Example 249, 2-{3-[(1H-benzimidazol-2-yl)(1-methylpiperidin-4-yloxy)methyl]phenylsulfanyl}ethylamine] | < 0.3
42 | CN1CCC(OC(c2cccc(N3CCC(CO)C3)c2)c2nc3ccccc3s2)CC1 (stereo not drawn) [Example 404, (1-{3-[benzothiazol-2-yl(1-methylpiperidin-4-yloxy)methyl]phenyl}pyrrolidin-3-yl)methanol] | < 0.3
